Assays:
Type in all cases: cell-based, mouse
[1] = tested on: β-galactosidase in CMV-LacZ C2C12 myoblasts; test: CMV-LacZ secondary screen in C2C12 myoblasts (β-Gal stabilizing assay); settings: CMV-LacZ C2C12 myoblasts
Summary of the method: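 Stable CMV-LacZ C2C12 clone; six-point curve 0.5–40 μM; duplicates.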

[2] = tested on: α7 integrin (LacZ reporter in α7+/LacZ myotubes); test: Myotube α7 integrin FDG assay (Burkin assay in myotubes, 96-well); settings: myotubes
[3] = tested on: β-galactosidase in CMV-LacZ C2C12 myotubes; test: CMV-LacZ secondary screen in C2C12 myotubes (β-Gal stabilizing assay); settings: C2C12 CMV-LacZ myotubes, fold relative to DMSO
Summary of the method: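 CMV-LacZ C2C12 line (clonal, FDG-screened); myoblasts/myotubes dosed 0.5–40 μM (0.5, 1, 5, 10, 20, 40 μM); n=2 per point; β-gal stabilization read-out.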

[4] = tested on: α7 integrin (LacZ reporter in α7βgal+/− myoblasts); test: Myoblast α7+/LacZ integrin FDG assay (Burkin assay in myoblasts, 96-well); settings: α7+/LacZ myoblasts, 96-well

| SMILES | CMV-LACZ in Myoblasts (β-galactosidase activity relative to DMSO) ([1]; 0.5 uM) | CMV-LACZ in Myoblasts (β-galactosidase activity relative to DMSO) ([1]; 1 uM) | CMV-LACZ in Myoblasts (β-galactosidase activity relative to DMSO) ([1]; 5 uM) | CMV-LACZ in Myoblasts (β-galactosidase activity relative to DMSO) ([1]; 10 uM) | CMV-LACZ in Myoblasts (β-galactosidase activity relative to DMSO) ([1]; 20 uM) | CMV-LACZ in Myoblasts (β-galactosidase activity relative to DMSO) ([1]; 40 uM) | Burkin Assay in Myotubes, α7 integrin LacZ reporter signal relative to DMSO ([2]; 0.5 uM) | Burkin Assay in Myotubes, α7 integrin LacZ reporter signal relative to DMSO ([2]; 1 uM) | Burkin Assay in Myotubes, α7 integrin LacZ reporter signal relative to DMSO ([2]; 5 uM) | Burkin Assay in Myotubes, α7 integrin LacZ reporter signal relative to DMSO ([2]; 10 uM) | Burkin Assay in Myotubes, α7 integrin LacZ reporter signal relative to DMSO ([2]; 20 uM) | Burkin Assay in Myotubes, α7 integrin LacZ reporter signal relative to DMSO ([2]; 40 uM) | CMV-LACZ in Myotubes, signal relative to DMSO ([3]; 0.5 uM) | CMV-LACZ in Myotubes, signal relative to DMSO ([3]; 1 uM) | CMV-LACZ in Myotubes, signal relative to DMSO ([3]; 5 uM) | CMV-LACZ in Myotubes, signal relative to DMSO ([3]; 10 uM) | CMV-LACZ in Myotubes, signal relative to DMSO ([3]; 20 uM) | CMV-LACZ in Myotubes, signal relative to DMSO ([3]; 40 uM) | Burkin Assay in Myoblasts, signal relative to DMSO ([4]; 0.5 uM) | Burkin Assay in Myoblasts, signal relative to DMSO ([4]; 1 uM) | other results |
| --- | --- | --- | --- | --- | --- | --- | --- | --- | --- | --- | --- | --- | --- | --- | --- | --- | --- | --- | --- | --- | --- |
| CC(C)(C)c1csc(NC(=O)c2cccnc2)n1 [MLS001164432-01] | 0.9600 | 0.7842 | 1.1387 | 1.3183 | 1.1059 | 1.1289 | 0.8982 | 0.9509 | 0.9878 | 0.9985 | 0.7121 | 0.8464 | 0.9248 | 1.3543 | 0.9500 | 1.2418 | 1.1358 | 1.1179 | 1.248 | 1.1813 | Burkin Assay in Myoblasts, signal relative to DMSO ([4]; 5 uM): 1.091; Burkin Assay in Myoblasts, signal relative to DMSO ([4]; 10 uM): 1.067; Burkin Assay in Myoblasts, signal relative to DMSO ([4]; 20 uM): 0.7137; Burkin Assay in Myoblasts, signal relative to DMSO ([4]; 40 uM): 0.6622 |
| O=C(O)C(Cc1ccc(O)cc1)N1C(=O)c2ccccc2C1=O (stereo not drawn) [MLS001165394-01] | 1.0655 | 1.0015 | 1.0941 | 0.9792 | 0.8663 | 0.9570 | 1.068 | 1.135 | 1.239 | 0.9854 | 1.188 | 1.034 | 0.9232 | 1.1558 | 0.9589 | 0.9045 | 1.0344 | 0.9544 | 1.149 | 1.201 | Burkin Assay in Myoblasts, signal relative to DMSO ([4]; 5 uM): 1.159; Burkin Assay in Myoblasts, signal relative to DMSO ([4]; 10 uM): 0.951; Burkin Assay in Myoblasts, signal relative to DMSO ([4]; 20 uM): 1.035; Burkin Assay in Myoblasts, signal relative to DMSO ([4]; 40 uM): 1.007 |
| CCCCN1CC(=O)N2Cc3[nH]c4ccccc4c3C[C@H]2C1=O [MLS001165424-01] | 1.1754 | 0.9796 | 1.0607 | 1.0078 | 1.2730 | 1.2074 | 0.8771 | 0.8568 | 0.8938 | 0.8315 | 0.7791 | 0.7641 | 0.9152 | 1.1248 | 1.0571 | 1.1758 | 1.0316 | 0.8558 | 1.152 | 1.2222 | Burkin Assay in Myoblasts, signal relative to DMSO ([4]; 5 uM): 0.9966; Burkin Assay in Myoblasts, signal relative to DMSO ([4]; 10 uM): 0.9548; Burkin Assay in Myoblasts, signal relative to DMSO ([4]; 20 uM): 1.176; Burkin Assay in Myoblasts, signal relative to DMSO ([4]; 40 uM): 1.23 |

From patent publication US9980943B2, “Methods of treating muscular dystrophy” (BOARD OF REGENTS OF THE NEVADA SYSTEM OF HIGHER EDUCATION, …, priority 2013, dated 2018)
